Assay results reported in PMC3077032 (Clinical cancer research : an official journal of the …, 2011).
Where two headings read alike, the source gives them in different places.

Legend:
[1] = in vivo
clinical = details: human, plasma (sorafenib); sample for sirolimus not named, oral
[2] = cited from earlier work
[3] = day 28 combination vs day 14 alone
[4] = for AUC, median relative difference (range) after initiation of combination therapy / Cmax, median relative difference (range) after initiation of combination therapy: combination with the interacting drug vs drug alone, n=6; for Ka, population estimate: one-compartment NONMEM model, n = 6 per drug
CYP3A4 = details: cited from earlier work
[5] = daily oral dosing, phase I trial in cancer patients

Structure (SMILES)	AUC, median relative difference (range) after initiation of combination therapy [1]	Vd/F (clinical)	Dose well tolerated [2, 5]	Maximum tolerated dose [2, 5]	Dose administered without dose limiting toxicity ([2]; weekly dosing, ongoing study at the University of Chicago)	AUC, median relative difference (range) after initiation of combination therapy [3]	Cmax, median relative difference (range) after initiation of combination therapy [3]	Cmax, median relative difference (range) after initiation of combination therapy ([3]; listed as Sirolimus)	AUC, median relative difference (range) after initiation of combination therapy [4]	Cmax, median relative difference (range) after initiation of combination therapy [4]	Cmax, median relative difference (range) after initiation of combination therapy ([4]; listed as Sirolimus)	Ka, population estimate [4]	Effect of inhibitors of CYP3A4 on pharmacokinetics (CYP3A4)	Cmax, median relative difference (range) after initiation of combination therapy ([4]; listed as Sorafenib)	Cmax, median relative difference (range) after initiation of combination therapy ([3]; listed as Sunitinib)
CCNCCNC(=O)c1c(C)[nH]c(/C=C2\C(=O)Nc3ccc(F)cc32)c1C [SU12662]	61.6 (−79.7, 1031.2) %	–	–	–	–	–	–	–	–	–	–	–	–	–	–
CO[C@H]1C[C@@H]2CC[C@@H](C)[C@@](O)(O2)C(=O)C(=O)N2CCCC[C@H]2C(=O)O[C@H]([C@H](C)C[C@@H]2CC[C@@H](O)[C@H](OC)C2)CC(=O)[C@H](C)/C=C(\C)[C@@H](O)[C@@H](OC)C(=O)[C@H](C)C[C@H](C)/C=C/C=C/C=C/1C [sirolimus, Sirolimus]	–	138 L	3 mg	6 mg	90 mg	−47.7 (−75.4, 1394.8) %	−29.8%	−29.8 (−77.4, 28.8) %	43.7 (10.5, 84.7) %	3.9%	3.9 (1.3, 11.0) %	2.01 h⁻¹	–	–	–
CNC(=O)c1cc(Oc2ccc(NC(=O)Nc3ccc(Cl)c(C(F)(F)F)c3)cc2)ccn1 [sorafenib, Sorafenib]	–	807 L	–	–	–	–	–	–	6.1 (−17.3, 22.0) %	−40.7%	–	1.07 h⁻¹	only modestly affected	−40.7 (−87.0, 351.2) %	–
CCN(CC)CCNC(=O)c1c(C)[nH]c(/C=C2\C(=O)Nc3ccc(F)cc32)c1C [sunitinib, Sunitinib]	–	–	–	–	–	54.3 (−34.3, 232.8) %	19.6%	–	–	–	–	–	only modestly affected	–	19.6 (−23.5, 45.4) %
